Solubility data for one compound are collected here from US6486149B2, “Composition comprising a crystallographically stable, amorphous cephalosporin and processes for the preparation thereof” (Meiji Seika Kaisha Ltd., priority 1998, dated 2002).

As usually defined, the solubility is the concentration that dissolves in the medium under given conditions.

This series can be described thus: Solubility in acidic water (pH 1.2) at 37° C. (Test Example 1). It counts as physicochemical. Conditions: acidic water (pH 1.2) containing HCl, simulated gastric fluid, thermodynamic from solid, acidic water (pH 1.2) containing about 1N HCl, stirred 2 hours, filtered through 1 μm membrane, read-out: solubility of Cefditoren pivoxil in acidic water. As to the method: The solid particles present in the composition of this invention were tested for the measurement of their water-solubility as shown in Test Example given hereinafter.
There was taken as a sample one gram of the yellow-colored powder (the composition of this invention), which was obtained in Example 6 above, and which consisted essentially of the particles as formed substantially from a homogeneous mixture comprising the amorphous substance of Cefditoren pivoxil and hydroxypropylmethyl cellulose, and in which the surface layer of said particles contained additionally hydroxypropyl cellulose. The sample so taken was placed in 250 ml of an acidic water (pH 1.2) containing about […] at 37° C. and stirred at 37° C. for 2 hours. The resulting aqueous solution was passed through a millipore (1 μm) membrane filter to remove the insoluble solid therefrom. The transparent aqueous solution here obtained, which contained Cefditoren pivoxil and the water-soluble cellulose derivatives above-mentioned as dissolved therein, was then measured in respect of the concentration of the Cefditoren pivoxil. […]

Converted amounts (≈) assume the structure as drawn.

For `CO/N=C(\C(=O)NC1C(=O)N2C(C(=O)OCOC(=O)C(C)(C)C)=C(/C=C\c3scnc3C)CS[C@H]12)c1csc(N)n1` (stereo partly shown) [7-[(Z)-2-(2-aminothiazol-4-yl)-2-methoxyiminoacetamido]-3-[(Z)-2-(4-methylthiazol-5-yl)ethenyl]-3-cephem-4-carboxylic acid pivaloyloxymethyl ester], the solubility at 2 h is ~400 µg/mL (≈ 644 µM).
